Assay [1] addresses T1, Mitogen-activated protein kinase 14 (Homo sapiens, UniProt Q16539). As to the kind of experiment: Inhibition of p38alpha kinase using KRELVEPLTPSGEAPNQALLR as substrate for 20 mins by lactate dehydrogenase-coupled spectrophotometric assay.
In assay [2] the target is T1, Mitogen-activated protein kinase 14. As to the kind of experiment: Inhibition of p38alpha in human PBMC assessed as inhibition of LPS-induced IL1beta production after 16 to 18 hrs by ELISA. Background: In an ELISA, binding on a coated surface is turned into a signal by an enzyme label.
The target is the same in assay [3]. As to the kind of experiment: Inhibition of p38alpha in human PBMC assessed as inhibition of LPS-induced TNFalpha production after 16 to 18 hrs by ELISA.

T1 sequence (Q16539 whole entry): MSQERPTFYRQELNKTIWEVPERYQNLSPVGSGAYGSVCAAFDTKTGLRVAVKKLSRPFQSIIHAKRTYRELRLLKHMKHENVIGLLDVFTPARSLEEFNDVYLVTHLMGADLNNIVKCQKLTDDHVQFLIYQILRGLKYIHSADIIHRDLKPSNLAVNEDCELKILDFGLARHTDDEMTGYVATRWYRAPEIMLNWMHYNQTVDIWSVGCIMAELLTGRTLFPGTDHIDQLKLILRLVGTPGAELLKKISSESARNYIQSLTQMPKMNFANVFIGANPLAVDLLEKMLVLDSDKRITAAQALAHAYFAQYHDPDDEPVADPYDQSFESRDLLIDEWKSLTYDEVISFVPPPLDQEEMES

For the molecule `O=c1ncn2nc(Sc3ccccc3)ccc2c1-c1c(Cl)cccc1Cl`, the IC50 – broadly, the concentration that inhibits the measured activity by half – was determined as 250 nM in assay [1], 400 nM in assay [2] and 460 nM in assay [3].

For `O=c1ncn2nc(Sc3ccc(Cl)c(Cl)c3)ccc2c1-c1c(Cl)cccc1Cl`, the IC50 in assay [1] stood at 800 nM; in assay [3], 1200 nM.

Regarding `Cc1ccc(Sc2ccc3c(-c4c(Cl)cccc4Cl)c(=O)ncn3n2)cc1`, the IC50 is 1400 nM in assay [1] and 370 nM in assay [2].

In assay [1], `O=c1ncn2nc(Sc3cccc(Cl)c3)ccc2c1-c1c(Cl)cccc1Cl` displayed a concentration for half-maximal inhibition (IC50) of 280 nM.

Regarding `O=c1ncn2nc(Sc3cccc(F)c3)ccc2c1-c1c(Cl)cccc1Cl`, the IC50 in assay [2] amounted to 440 nM; in assay [3], 720 nM.

On to `Cc1cc(Cl)ccc1Sc1ccc2c(-c3c(Cl)cccc3Cl)c(=O)ncn2n1`, for which the IC50 in assay [1] amounted to 180 nM; in assay [2], 180 nM; in assay [3] it was 160 nM.

Turning to `O=c1ncn2nc(Sc3ccccc3O)ccc2c1-c1c(Cl)cccc1Cl`, the half-maximal inhibitory concentration (IC50) in assay [1] worked out at 360 nM; in assay [2], 140 nM; in assay [3] it was 490 nM.

For `O=c1ncn2nc(Sc3ccccc3)ccc2c1-c1ccc(Cl)cc1Cl`, the IC50 in assay [1] came to 5000 nM; in assay [2], 20000 nM; in assay [3], 20000 nM.

Turning to `O=c1ncn2nc(Sc3ccccc3)ccc2c1-c1ccccc1`, in assay [1], the IC50 was > 20000 nM.

For `Cc1ccccc1-c1c(=O)ncn2nc(Sc3ccccc3)ccc12`, the IC50 is 4400 nM in assay [1] and 9700 nM in assay [3].

`COc1ccccc1-c1c(=O)ncn2nc(Sc3ccccc3)ccc12`: the IC50 is 12000 nM in assay [1] and 2800 nM in assay [2].

As to `O=c1ncn2nc(Sc3ccccc3)ccc2c1-c1ccccc1C(F)(F)F`, the IC50 is 11000 nM in assay [1], 2100 nM in assay [2] and > 20000 nM in assay [3].

With `O=c1ncn2nc(Sc3ccccc3)ccc2c1-c1ccccc1Cl`, in assay [1], the midpoint of inhibition, the IC50, lay at 4100 nM.

Take `O=c1ncn2nc(Sc3ccccc3)ccc2c1-c1ccc(F)cc1`: the IC50 in assay [1] and in assay [3] was > 20000 nM in each case.

For the molecule `O=c1ncn2nc(Sc3ccccc3)ccc2c1-c1c(F)cccc1C(F)(F)F`, the IC50 was determined as 1700 nM in assay [1], 1000 nM in assay [2] and 3100 nM in assay [3].

Turning to `O=c1ncn2nc(Sc3ccccc3)ccc2c1-c1c(F)cccc1F`, the half-inhibitory concentration (IC50) in assay [1] worked out at 3500 nM; in assay [2], 3700 nM; in assay [3], 15300 nM.

For the molecule `CCc1ccccc1Sc1ccc2c(-c3c(Cl)cccc3Cl)c(=O)ncn2n1`, the IC50 in assay [1] amounted to 750 nM; in assay [2] it was 980 nM; in assay [3], 2800 nM.

The molecule `Cc1cccc(Sc2ccc3c(-c4c(Cl)cccc4Cl)c(=O)ncn3n2)c1` returned an IC50 in assay [1] of 1400 nM.

Turning to `Nc1cc(F)ccc1Sc1ccc2c(-c3c(Cl)cccc3Cl)c(=O)ncn2n1`, the IC50 came to 220 nM in assay [1], 280 nM in assay [2] and 1200 nM in assay [3].

On to `Cc1ccccc1Sc1ccc2c(-c3c(Cl)cccc3Cl)c(=O)ncn2n1`, for which the IC50 came to 200 nM in assay [1], 330 nM in assay [2] and 3700 nM in assay [3].

On to `O=c1ncn2nc(Sc3ccc(F)cc3)ccc2c1-c1c(Cl)cccc1Cl`, for which the IC50 in assay [1] was 123 nM; in assay [3], 293 nM.

For `Cc1ccc(Sc2ccc3c(-c4c(Cl)cccc4Cl)c(=O)ncn3n2)cc1C`, the IC50 amounted to 1900 nM in assay [1], 2400 nM in assay [2] and 3500 nM in assay [3].

As to `Cc1ccc(Sc2ccc3c(-c4c(Cl)cccc4Cl)c(=O)ncn3n2)c(C)c1`, the IC50 was 260 nM in assay [1], 690 nM in assay [2] and 320 nM in assay [3].

Regarding `O=c1ncn2nc(Sc3ccc(F)cc3Cl)ccc2c1-c1c(Cl)cccc1Cl`, the IC50 in assay [1] stood at 36 nM; in assay [2], 53 nM; in assay [3], 275 nM.

Consider `O=c1ncn2nc(Sc3ccc(F)c(Cl)c3)ccc2c1-c1c(Cl)cccc1Cl`, for which the IC50 in assay [1] was 500 nM; in assay [2], 180 nM; in assay [3], 480 nM.

For the origin of these results see ChEMBL document CHEMBL2021894, “The Discovery of VX-745: A Novel and Selective p38α Kinase Inhibitor” (ACS Med Chem Lett, 2011).
